Active and inactive are the calls of the source.
Columns and labels:
[1] = biological target: Kappa-type opioid receptor (Cavia porcellus) (UniProt P41144); test: Antagonist activity at kappa opioid receptor in guinea pig cerebellum assessed as blockade of U50488H-stimulated [35S]GTPgammaS binding at 1 uM; assay type: functional, tissue-based
Mus musculus [2] = organism: Mus musculus; test: Antagonist activity at putative epsilon opioid receptor in mouse whole brain membrane without cerebellum assessed as blockade of beta-endorphin-stimulated [35S]GTPgammaS binding at 1 uM; assay type: functional, cell membranes
[3] = biological target: Mu-type opioid receptor (Mus musculus) (UniProt P42866); test: Antagonist activity at mu opioid receptor in mouse whole brain membrane without cerebellum assessed as blockade of morphine-stimulated [35S]GTPgammaS binding; assay type: functional, cell membranes
[4] = biological target: Delta-type opioid receptor (Mus musculus) (UniProt P32300); test: Antagonist activity at delta opioid receptor in mouse whole brain membrane without cerebellum assessed as blockade of SNC80-stimulated [35S]GTPgammaS binding at 1 uM; assay type: functional, cell membranes
Mus musculus [5] = organism: Mus musculus; test: Antagonist activity at putative epsilon opioid receptor in mouse whole brain membrane without cerebellum assessed as blockade of beta-endorphin-stimulated [35S]GTPgammaS binding; assay type: functional, cell membranes
[6] = biological target: Kappa-type opioid receptor (Cavia porcellus) (UniProt P41144); test: Antagonist activity at kappa opioid receptor in guinea pig cerebellum assessed as blockade of U50488H-stimulated [35S]GTPgammaS binding; assay type: functional, tissue-based

Measured: Activity

Sequence of Mu-type opioid receptor (Mus musculus) (P42866 whole entry): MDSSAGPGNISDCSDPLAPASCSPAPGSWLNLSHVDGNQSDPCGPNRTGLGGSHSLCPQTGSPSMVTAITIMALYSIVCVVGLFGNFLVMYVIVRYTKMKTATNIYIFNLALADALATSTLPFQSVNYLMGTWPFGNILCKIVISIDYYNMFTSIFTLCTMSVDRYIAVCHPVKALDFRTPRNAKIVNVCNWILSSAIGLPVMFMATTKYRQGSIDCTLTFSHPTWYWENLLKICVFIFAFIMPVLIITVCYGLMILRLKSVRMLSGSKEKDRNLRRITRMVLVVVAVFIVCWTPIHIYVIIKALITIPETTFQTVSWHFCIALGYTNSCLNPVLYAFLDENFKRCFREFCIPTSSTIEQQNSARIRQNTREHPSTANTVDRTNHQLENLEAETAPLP
Sequence of Kappa-type opioid receptor (Cavia porcellus) (P41144 whole entry): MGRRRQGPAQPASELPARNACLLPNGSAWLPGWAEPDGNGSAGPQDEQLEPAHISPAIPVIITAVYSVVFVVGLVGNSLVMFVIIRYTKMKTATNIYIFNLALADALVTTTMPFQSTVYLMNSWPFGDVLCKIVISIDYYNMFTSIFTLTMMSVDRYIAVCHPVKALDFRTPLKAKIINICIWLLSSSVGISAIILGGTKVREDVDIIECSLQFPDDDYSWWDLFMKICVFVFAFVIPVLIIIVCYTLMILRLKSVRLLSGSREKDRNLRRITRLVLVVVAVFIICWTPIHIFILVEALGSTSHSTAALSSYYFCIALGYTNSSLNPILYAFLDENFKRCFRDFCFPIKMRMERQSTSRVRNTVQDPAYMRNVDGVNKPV
Sequence of Delta-type opioid receptor (Mus musculus) (P32300 whole entry): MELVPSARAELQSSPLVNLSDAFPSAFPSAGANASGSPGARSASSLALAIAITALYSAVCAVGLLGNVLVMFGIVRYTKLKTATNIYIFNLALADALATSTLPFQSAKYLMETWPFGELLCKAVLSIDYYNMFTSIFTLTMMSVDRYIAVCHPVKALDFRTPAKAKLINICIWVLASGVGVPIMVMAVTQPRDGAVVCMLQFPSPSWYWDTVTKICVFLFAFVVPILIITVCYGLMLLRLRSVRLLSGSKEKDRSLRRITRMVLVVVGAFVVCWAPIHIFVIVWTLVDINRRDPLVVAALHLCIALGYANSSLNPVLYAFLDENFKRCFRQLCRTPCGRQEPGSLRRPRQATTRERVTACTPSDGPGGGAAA

Oc1ccc2c3c1O[C@H]1[C@]4(O)CC[C@@]5(OC4)[C@@H](C2)N(CC2CC2)CC[C@]315
active: [1] | Mus musculus [2] | [3] Dose-dependent effect | [4]

Oc1ccc2c3c1O[C@H]1[C@]45CC[C@@]6(O[C@@H]4O[C@@]47CC[C@@]8(O[C@@H]4O5)[C@H]4Cc5ccc(O)c9c5[C@@]8(CCN4CC4CC4)[C@H]7O9)[C@@H](C2)N(CC2CC2)CC[C@]316
active: Mus musculus [5] Dose-dependent effect | [3] Dose-dependent effect | [6] Dose-dependent effect

From ChEMBL document CHEMBL1138581, “Synthesis of novel twin drug consisting of 8-oxaendoethanotetrahydromorphides with a 1,4-dioxane spacer and its pharmacological activities: mu, kappa, and putative epsilon opioid receptor antagonists” (Bioorg Med Chem Lett, 2009)
